Measured values taken from patent US20230242582A1, “NOVEL ALPHA-HELICAL DOUBLE-SIDED CELL PENETRATING PEPTIDE AND USE THEREOF” (CAMP THERAPEUTICS INC., priority 2020, published 2023).
Values belong to the compound of their own block, whether it stands above or below them. Residues, ends and D or L forms follow the SMILES beside them.

Tests used:
[1] = Intracellular delivery of CsA with fluorescence by non-covalent bonding with peptide; assay type: cell-based; details: FIG. 8
From the text: For the peptides with various compositions of lysine and arginine, their intracellular delivery by non-covalent bonding with CsA was identified using CsA with fluorescence.

[2] = system: HeLa cells; assay: Cytotoxicity of dimeric peptides, WST-1 assay; assay type: cell-based, human
Description: Cytotoxicity was identified using WST-1 assay by treating HeLa cells with peptides in a 96-well plate (1×10^4 cells/well) for 24 hours.
(§1) Specifically, HeLa cells were cultured in DMEM at a condition of 37° C. with 5% CO2. The cells were respectively cultured in a cell culture plate, and then removed with trypsin. The cells were seeded at 1×10^4 cells per well in a 96-well plate. After 24 hours, the peptide was added to the media, and culture was performed again at a condition of 37° C. with 5% CO2 for 24 hours. 10 uL of WST-1 reagent was added per well, and reaction was allowed to proceed for 30 minutes at a condition of 37° C. with 5% CO2. Then, UV absorbance was measured at 450/700 nm with a 96-well plate reader.

[3] = system: IL-2; assay: Decrease of extracellularly secreted IL-2 in Jurkat cells, ELISA; assay type: cell-based; details: CsA complex with diLR10 versus CsA only
Description: The hydrophobic drug cyclosporine (CsA) was mixed with a peptide and incubated at room temperature for 20 minutes to create a complex with the hydrophobic drug. Then, Jurkat cells (1.0×10^4 cells/well) were treated with the complex for 4.5 hours. An amount of extracellularly secreted IL-2 was measured by an ELISA method to identify, through IC50 values, whether an anti-inflammatory effect caused by CsA, which corresponded to a relative decrease in IL-2, was enhanced by the cell-penetrating peptide diLR10.

[4] = system: HeLa cells; assay: Cell-penetrating ability of fluorescently labeled dimeric peptides, flow cytometry; assay type: cell-based, human; details: at 62.5 nM, FIG. 6A
Description: During preparation of CPPs in dimeric form shown in Tables 1 to 3, one monomer thereof was prepared in a form where 5-TAMRA fluorescence was attached to the N-terminus, instead of acetyl. A monomer with acetyl and a monomer with 5-TAMRA fluorescence were mixed in a molar ratio of 1:1, and subjected to an oxidation condition in air to produce a dimeric form in which only one fluorescence was labeled per dimer molecule. Then, cell-penetrating ability of each dimer was identified. Each fluorescently labeled peptide was used to treat HeLa cells (5×10^4 cells/well), which are human-derived cells, and a ratio of the number of cells with fluorescence to the total number of cells was obtained through flow cytometry.
FIGS. 4B to 4D illustrate results obtained by treating cells with respective dimers at the same concentration (62.5 nM), measuring fluorescence intensity of the cells by flow cytometry, and relatively comparing the fluorescence intensity.
Based on cell-penetrating ability and cytotoxicity of the dimeric peptides of the present disclosure, correlation therebetween was identified. Cytotoxicity (IC50^−1) and cell-penetrating ability of the respective peptides were identified at 62.5 nM according to the methods described in Examples 5 and 6, and then graphically represented.

[5] = system: MDA-MB-231; assay: IC50 of MTX in cell line MDA-MB-231; assay type: cell-based; details: Homo sapiens
[6] = system: HeLa; assay: IC50 of MTX in cell line HeLa; assay type: cell-based; details: Homo sapiens
[7] = system: MDA-MB-231 cells; assay: Cytotoxicity of MTX-bound peptide, WST-1 assay; assay type: cell-based; details: Homo sapiens, 48 hours, MTX bound to N-terminus of one monomer of the dimer, MTX column = MTX alone, read-out: IC50 of MTX-bound peptide
Description: as §1
In order to identify a drug delivery effect of a peptide, a peptide in which methotrexate (MTX) is bound to the N-terminus of one monomer of a dimer was synthesized according to a known method (Kim et al. Biomacromolecules 2016).
MDA-MB-231 cells were seeded in a 96-well plate at a density of 2.5×10^3 cells/well, and treated with the MTX-bound peptide for 48 hours starting from the next day.

[8] = system: NIH-3T3; assay: IC50 of MTX in cell line NIH-3T3; assay type: cell-based; details: Mus musculus, NIH3T3

Compound: diLR10^R3K: dimer of monomer LR10^R3K, Ac-LCKLLRRLCR-NH2 (SEQ ID NO 30) (also: dimer of two monomers linked by interchain disulfide bonds)
- intracellular delivery ability for CsA [1]: best intracellular delivery ability for CsA

- decrease of IC50 value [3]: 21%
Compound: CC(=O)N[C@@H](CC(C)C)C(=O)N[C@H]1CSSC[C@@H](C(=O)N[C@@H](CCCNC(=N)N)C(N)=O)NC(=O)[C@H](CC(C)C)NC(=O)[C@H](CCCNC(=N)N)NC(=O)[C@H](CCCNC(=N)N)NC(=O)[C@H](CC(C)C)NC(=O)[C@H](CC(C)C)NC(=O)[C@H](CCCNC(=N)N)NC(=O)[C@@H](NC(=O)[C@H](CC(C)C)NC(C)=O)CSSC[C@@H](C(=O)N[C@@H](CCCNC(=N)N)C(N)=O)NC(=O)[C@H](CC(C)C)NC(=O)[C@H](CCCNC(=N)N)NC(=O)[C@H](CCCNC(=N)N)NC(=O)[C@H](CC(C)C)NC(=O)[C@H](CC(C)C)NC(=O)[C@H](CCCNC(=N)N)NC1=O [diLR10] (HELM PEPTIDE1{[ac].L.C.R.L.L.R.R.L.C.R.[am]}|PEPTIDE2{[ac].L.C.R.L.L.R.R.L.C.R.[am]}$PEPTIDE1,PEPTIDE2,3:R3-10:R3|PEPTIDE1,PEPTIDE2,10:R3-3:R3$$$V2.0; bridges inferred)
- increase in IC50 value as compared with LK-3 ([2]; HeLa cells): about 5 fold
- ratio ([2]; IC50 relative to LK-3, HeLa cells): 4.26
- ratio of cell-penetrating ability to cytotoxicity (IC50^−1) [4]: low toxicity as compared with cell-penetrating ability

- IC50 [5]: 970 nM
- IC50 [6]: ~31 nM
Compound: CN(Cc1cnc2nc(N)nc(N)c2n1)c1ccc(C(=O)N[C@@H](CCC(=O)O)C(=O)O)cc1 [MTX, methotrexate]
- IC50 [7]: 972 nM
- IC50 [8]: 37 nM
